According to patent publication US20100298141A1, “SUBSTITUTED PYRIDINE N-OXIDE HERBICIDES” (E. I. DU PONT DE NEMOURS AND COMPANY, priority 2007, published 2010):

Legend:
annual bluegrass = assay: Test D preemergence test; format: in vivo, Poa annua; conditions: scale 0 to 100
Text: (§1) Seeds of plant species selected from annual bluegrass (Poa annua), blackgrass (Alopecurus myosuroides), downy bromegrass (Bromus tectorum), field violet (Viola arvensis), green foxtail (Setaria viridis), Italian ryegrass (Lolium multiflorum), littleseed canarygrass (Phalaris minor), spring wheat (Triticum aestivum), wild oat (Avena fatua), […]), winter barley (Hordeum vulgare), and winter wheat (Triticum aestivum) were planted and treated preemergence with test chemicals formulated in a non-phytotoxic solvent mixture which included a surfactant. […] A dash (-) response means no test result.

winter barley = assay: Test D preemergence test; format: in vivo, Hordeum vulgare
Text: as §1

tall waterhemp = assay: Test G preemergence test; format: in vivo, Amaranthus tuberculatos; conditions: scale 0 to 100
blackgrass = assay: Test D preemergence test; format: in vivo, Alopecurus myosuroides; conditions: scale 0 to 100
Text: as §1

eastern black nightshade = assay: Test G preemergence test; format: in vivo, Solanum ptycanthum; conditions: scale 0 to 100
goosegrass = assay: Test G preemergence test; format: in vivo, Eleusine indica; conditions: scale 0 to 100
lambsquarters = assay: Test G preemergence test; format: in vivo, Chenopodium album; conditions: scale 0 to 100
soybean = assay: Test G preemergence test; format: in vivo, Glycine max; conditions: scale 0 to 100
spring wheat = assay: Test D preemergence test; format: in vivo, Triticum aestivum; conditions: scale 0 to 100
Text: as §1

winter wheat = assay: Test D preemergence test; format: in vivo, Triticum aestivum; conditions: scale 0 to 100
Text: as §1

field sandbur = assay: Test G preemergence test; format: in vivo, Cenchrus incertus; conditions: scale 0 to 100
barnyardgrass = assay: Test G preemergence test; format: in vivo, Echinochloa crus-galli; conditions: scale 0 to 100
yellow nutsedge = assay: Test G preemergence test; format: in vivo, Cyperus esculentus; conditions: scale 0 to 100
corn = assay: Test G preemergence test; format: in vivo, Zea mays; conditions: scale 0 to 100
giant foxtail = assay: Test G preemergence test; format: in vivo, Setaria faberii; conditions: scale 0 to 100
millet = assay: Test G preemergence test; format: in vivo, Panicum miliaceum; conditions: scale 0 to 100
itchgrass = assay: Test G preemergence test; format: in vivo, Rottboellia cochinchinensis; conditions: scale 0 to 100
green foxtail = assay: Test D preemergence test; format: in vivo, Setaria viridis; conditions: scale 0 to 100
Text: as §1

cotton = assay: Test G preemergence test; format: in vivo, Gossypium hirsutum; conditions: scale 0 to 100
sorghum = assay: Test G preemergence test; format: in vivo, Sorghum vulgare; conditions: scale 0 to 100
wild oat = assay: Test D preemergence test; format: in vivo, Avena fatua; conditions: scale 0 to 100
Text: as §1

littleseed canarygrass = assay: Test D preemergence test; format: in vivo, Phalaris minor; conditions: scale 0 to 100
Text: as §1

Italian ryegrass = assay: Test D preemergence test; format: in vivo, Lolium multiflorum; conditions: scale 0 to 100
Text: as §1

Cc1cc[n+]([O-])c(S(=O)(=O)C(C)c2c(C(F)(F)F)nn(C)c2Cl)c1 (racemic) [Compound 14]
Plant response rating, Bluegrass (annual bluegrass; 31 g ai/ha): 0 | Plant response rating, Bluegrass (annual bluegrass; 62 g ai/ha): 0 | Plant response rating, Bluegrass (annual bluegrass; 125 g ai/ha): 65 | Plant response rating, Bluegrass (annual bluegrass; 250 g ai/ha): 100 | Plant response rating, Barley (winter barley; Preemergence, 62 g ai/ha, scale 0 to 100): 0 | Plant response rating, Barley (winter barley; Preemergence, 125 g ai/ha, scale 0 to 100): 0 | Plant response rating, Barley (winter barley; Preemergence, 31 g ai/ha, scale 0 to 100): 0 | Plant response rating, Barley (winter barley; preemergence, 250 g ai/ha, scale 0 (no effect) to 100 (complete control)): 15 | Plant response rating, Waterhemp (tall waterhemp; 31 g ai/ha): 0 | Plant response rating, Waterhemp (tall waterhemp; 62 g ai/ha): 0 | Plant response rating, Waterhemp (tall waterhemp; 125 g ai/ha): 0 | Plant response rating, Waterhemp (tall waterhemp; 250 g ai/ha): 40 | Plant response rating, Blackgrass (blackgrass; 31 g ai/ha): 0 | Plant response rating, Blackgrass (blackgrass; 62 g ai/ha): 40 | Plant response rating, Blackgrass (blackgrass; 125 g ai/ha): 40 | Plant response rating, Blackgrass (blackgrass; 250 g ai/ha): 95 | Plant response rating, Nightshade (eastern black nightshade; 31 g ai/ha): 0 | Plant response rating, Nightshade (eastern black nightshade; 62 g ai/ha): 0 | Plant response rating, Nightshade (eastern black nightshade; 125 g ai/ha): 0 | Plant response rating, Nightshade (eastern black nightshade; 250 g ai/ha): 55 | Plant response rating, Goosegrass (goosegrass; 31 g ai/ha): 85 | Plant response rating, Goosegrass (goosegrass; 62 g ai/ha): 95 | Plant response rating, Goosegrass (goosegrass; 125 g ai/ha): 100 | Plant response rating, Goosegrass (goosegrass; 250 g ai/ha): 100 | Plant response rating, Lambsquarters (lambsquarters; 31 g ai/ha): 0 | Plant response rating, Lambsquarters (lambsquarters; 62 g ai/ha): 0 | Plant response rating, Lambsquarters (lambsquarters; 125 g ai/ha): 0 | Plant response rating, Lambsquarters (lambsquarters; 250 g ai/ha): 40 | Plant response rating, Soybean (soybean; 31 g ai/ha): 0 | Plant response rating, Soybean (soybean; 62 g ai/ha): 0 | Plant response rating, Soybean (soybean; 125 g ai/ha): 0 | Plant response rating, Soybean (soybean; 250 g ai/ha): 0 | Plant response rating, Wheat, Spring (spring wheat; 31 g ai/ha): 0 | Plant response rating, Wheat, Spring (spring wheat; 62 g ai/ha): 0 | Plant response rating, Wheat, Spring (spring wheat; 125 g ai/ha): 15 | Plant response rating, Wheat, Spring (spring wheat; 250 g ai/ha): 20 | Plant response rating, Wheat, Winter (winter wheat; 31 g ai/ha): 0 | Plant response rating, Wheat, Winter (winter wheat; 62 g ai/ha): 0 | Plant response rating, Wheat, Winter (winter wheat; 125 g ai/ha): 20 | Plant response rating, Wheat, Winter (winter wheat; 250 g ai/ha): 35 | Plant response rating, Sandbur (field sandbur; 31 g ai/ha): 0 | Plant response rating, Sandbur (field sandbur; 62 g ai/ha): 20 | Plant response rating, Sandbur (field sandbur; 125 g ai/ha): 45 | Plant response rating, Sandbur (field sandbur; 250 g ai/ha): 85 | Plant response rating, Barnyardgrass (barnyardgrass; 31 g ai/ha): 0 | Plant response rating, Barnyardgrass (barnyardgrass; 62 g ai/ha): 45 | Plant response rating, Barnyardgrass (barnyardgrass; 125 g ai/ha): 70 | Plant response rating, Barnyardgrass (barnyardgrass; 250 g ai/ha): 100 | Plant response rating, Nutsedge, Yellow (yellow nutsedge; 31 g ai/ha): 0 | Plant response rating, Nutsedge, Yellow (yellow nutsedge; 62 g ai/ha): 0 | Plant response rating, Nutsedge, Yellow (yellow nutsedge; 125 g ai/ha): 0 | Plant response rating, Nutsedge, Yellow (yellow nutsedge; 250 g ai/ha): 65 | Plant response rating, Corn (corn; 31 g ai/ha): 0 | Plant response rating, Corn (corn; 62 g ai/ha): 0 | Plant response rating, Corn (corn; 125 g ai/ha): 0 | Plant response rating, Corn (corn; 250 g ai/ha): 35 | Plant response rating, Foxtail, Giant (giant foxtail; 31 g ai/ha): 0 | Plant response rating, Foxtail, Giant (giant foxtail; 62 g ai/ha): 20 | Plant response rating, Foxtail, Giant (giant foxtail; 125 g ai/ha): 100 | Plant response rating, Foxtail, Giant (giant foxtail; 250 g ai/ha): 100 | Plant response rating, Millet (millet; 31 g ai/ha): 0 | Plant response rating, Millet (millet; 62 g ai/ha): 15 | Plant response rating, Millet (millet; 125 g ai/ha): 20 | Plant response rating, Millet (millet; 250 g ai/ha): 75 | Plant response rating, Itchgrass (itchgrass; 31 g ai/ha): 0 | Plant response rating, Itchgrass (itchgrass; 62 g ai/ha): 0 | Plant response rating, Itchgrass (itchgrass; 125 g ai/ha): 15 | Plant response rating, Itchgrass (itchgrass; 250 g ai/ha): 20 | Plant response rating, Foxtail, Green (green foxtail; 31 g ai/ha): 0 | Plant response rating, Foxtail, Green (green foxtail; 62 g ai/ha): 20 | Plant response rating, Foxtail, Green (green foxtail; 125 g ai/ha): 65 | Plant response rating, Foxtail, Green (green foxtail; 250 g ai/ha): 80 | Plant response rating, Cotton (cotton; 31 g ai/ha): 0 | Plant response rating, Cotton (cotton; 62 g ai/ha): 0 | Plant response rating, Cotton (cotton; 125 g ai/ha): 0 | Plant response rating, Cotton (cotton; 250 g ai/ha): 0 | Plant response rating, Sorghum (sorghum; 31 g ai/ha): 0 | Plant response rating, Sorghum (sorghum; 62 g ai/ha): 0 | Plant response rating, Sorghum (sorghum; 125 g ai/ha): 20 | Plant response rating, Sorghum (sorghum; 250 g ai/ha): 65 | Plant response rating, Oat, Wild (wild oat; 31 g ai/ha): 0 | Plant response rating, Oat, Wild (wild oat; 62 g ai/ha): 0 | Plant response rating, Oat, Wild (wild oat; 125 g ai/ha): 0 | Plant response rating, Oat, Wild (wild oat; 250 g ai/ha): 20 | Plant response rating, Canarygrass (littleseed canarygrass; 31 g ai/ha): 0 | Plant response rating, Canarygrass (littleseed canarygrass; 62 g ai/ha): 0 | Plant response rating, Canarygrass (littleseed canarygrass; 125 g ai/ha): 15 | Plant response rating, Canarygrass (littleseed canarygrass; 250 g ai/ha): 20 | Plant response rating, Ryegrass, Italian (Italian ryegrass; 31 g ai/ha): 0 | Plant response rating, Ryegrass, Italian (Italian ryegrass; 62 g ai/ha): 0 | Plant response rating, Ryegrass, Italian (Italian ryegrass; 125 g ai/ha): 0 | Plant response rating, Ryegrass, Italian (Italian ryegrass; 250 g ai/ha): 100
